Reference: ChEMBL document CHEMBL1126853, “A series of penicillin-derived C2-symmetric inhibitors of HIV-1 proteinase: structural and modeling studies” (J Med Chem, 1993)

What follows are compounds tested against Human immunodeficiency virus type 1 protease (Human immunodeficiency virus 1, UniProt Q72874) (assay: Inhibitory activity against HIV-1 Protease).

| Compound | IC50 [nM] |
| --- | --- |
| CCNC(=O)[C@@H](NC(=O)Cc1ccccc1)[C@@H]1NC(C(=O)NCCNC(=O)[C@@H]2N[C@@H]([C@H](NC(=O)Cc3ccccc3)C(=O)NCC)SC2(C)C)C(C)(C)S1 (some centres not stated) | 3 |
| CCNC(=O)[C@@H](NC(=O)c1ccccc1)[C@@H]1NC(C(=O)NCCNC(=O)[C@@H]2N[C@@H]([C@H](NC(=O)c3ccccc3)C(=O)NCC)SC2(C)C)C(C)(C)S1 (some centres not stated) | 390 |
| CCNC(=O)[C@@H](NC(=O)c1ccccc1-c1ccccc1)[C@@H]1NC(C(=O)NCCNC(=O)[C@@H]2N[C@@H]([C@H](NC(=O)c3ccccc3-c3ccccc3)C(=O)NCC)SC2(C)C)C(C)(C)S1 (some centres not stated) | 9.9 |
| CC1(C)S[C@H]([C@H](NC(=O)Cc2ccccc2)C(=O)NCc2ccccc2)NC1C(=O)NCCCNC(=O)[C@@H]1N[C@@H]([C@H](NC(=O)Cc2ccccc2)C(=O)NCc2ccccc2)SC1(C)C (some centres not stated) | 540 |
| CC1(C)S[C@H]([C@H](NC(=O)Cc2ccccc2)C(=O)NCc2ccccc2)NC1C(=O)NCC(O)CNC(=O)[C@@H]1N[C@@H]([C@H](NC(=O)Cc2ccccc2)C(=O)NCc2ccccc2)SC1(C)C (some centres not stated) | 5 |
| CC1(C)S[C@H]([C@H](NC(=O)Cc2ccccc2)C(=O)NCC(F)(F)F)NC1C(=O)NCCNC(=O)[C@@H]1N[C@@H]([C@H](NC(=O)Cc2ccccc2)C(=O)NCC(F)(F)F)SC1(C)C (some centres not stated) | 4.4 |
| CCNC(=O)[C@@H](NC(=O)c1c(-c2ccccc2)noc1C)[C@@H]1NC(C(=O)NCCNC(=O)[C@@H]2N[C@@H]([C@H](NC(=O)c3c(-c4ccccc4)noc3C)C(=O)NCC)SC2(C)C)C(C)(C)S1 (some centres not stated) | 5.4 |
